This assay has as its system CD2F1 mice, L1210 leukemia ip, survival T/C. The experiment in a line: NCI In Vivo Anticancer Drug Screen. Data for tumor model L1210 Leukemia (intraperitoneal) in CD2F1 (CDF1) mice. As to conditions: higher = longer survival. Put shortly:
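Activity against a transplanted murine tumor was judged by comparing the compound group with a vehicle group. The outcome in the treated animals was divided by that in the controls.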

Setting [1] is: endpoint: mean survival time, dose: 100.0 mg/kg/injection, schedule: Q04DX003 (ip), vehicle: saline with Tween-80.
The mark [2] stands for this setting: endpoint: mean survival time, dose: 200.0 mg/kg/injection, schedule: Q04DX003 (ip), vehicle: saline with Tween-80.
[3] abbreviates: endpoint: mean survival time, dose: 400.0 mg/kg/injection, schedule: Q04DX003 (ip), vehicle: saline with Tween-80.
Setting [4] is: endpoint: mean survival time, dose: 100.0 mg/kg/injection, schedule: Q01DX001 (ip), vehicle: Klucel (hydroxypropylcellulose) (HPC).
[5] abbreviates: endpoint: mean survival time, dose: 100.0 mg/kg/injection, schedule: Q01DX001 (ip), vehicle: saline.
[6] abbreviates: endpoint: mean survival time, dose: 200.0 mg/kg/injection, schedule: Q01DX001 (ip), vehicle: saline.
The mark [7] stands for this setting: endpoint: mean survival time, dose: 400.0 mg/kg/injection, schedule: Q01DX001 (ip), vehicle: saline.
Where [8] appears, read: endpoint: mean survival time, dose: 100.0 mg/kg/injection, schedule: Q01DX001 (ip), vehicle: saline with Tween-80.
Where [9] appears, read: endpoint: mean survival time, dose: 200.0 mg/kg/injection, schedule: Q01DX001 (ip), vehicle: saline with Tween-80.
Where [10] appears, read: endpoint: mean survival time, dose: 100.0 mg/kg/injection, schedule: Q04DX003 (ip), vehicle: saline.
[11] abbreviates: endpoint: mean survival time, dose: 200.0 mg/kg/injection, schedule: Q04DX003 (ip), vehicle: saline.
Setting [12] is: endpoint: mean survival time, dose: 400.0 mg/kg/injection, schedule: Q04DX003 (ip), vehicle: saline.
Where [13] appears, read: endpoint: mean survival time, dose: 100.0 mg/kg/injection, schedule: Q04DX002 (ip), vehicle: saline.
Where [14] appears, read: endpoint: mean survival time, dose: 200.0 mg/kg/injection, schedule: Q04DX002 (ip), vehicle: saline.
[15] abbreviates: endpoint: mean survival time, dose: 400.0 mg/kg/injection, schedule: Q04DX002 (ip), vehicle: saline.
The mark [16] stands for this setting: endpoint: mean survival time, dose: 50.0 mg/kg/injection, schedule: Q01DX009 (ip), vehicle: saline.
[17] abbreviates: endpoint: mean survival time, dose: 100.0 mg/kg/injection, schedule: Q01DX009 (ip), vehicle: saline.
Where [18] appears, read: endpoint: mean survival time, dose: 200.0 mg/kg/injection, schedule: Q01DX009 (ip), vehicle: saline.
Where [19] appears, read: endpoint: mean survival time, dose: 400.0 mg/kg/injection, schedule: Q01DX001 (ip), vehicle: saline with Tween-80.
The mark [20] stands for this setting: endpoint: mean survival time, dose: 50.0 mg/kg/injection, schedule: Q01DX009 (ip), vehicle: saline with Tween-80.
[21] abbreviates: endpoint: mean survival time, dose: 100.0 mg/kg/injection, schedule: Q04DX002 (ip), vehicle: saline with Tween-80.
Setting [22] is: endpoint: mean survival time, dose: 200.0 mg/kg/injection, schedule: Q04DX002 (ip), vehicle: saline with Tween-80.
The mark [23] stands for this setting: endpoint: mean survival time, dose: 400.0 mg/kg/injection, schedule: Q04DX002 (ip), vehicle: saline with Tween-80.
Where [24] appears, read: endpoint: mean survival time, dose: 100.0 mg/kg/injection, schedule: Q01DX009 (ip), vehicle: saline with Tween-80.

Structures are written as SMILES. Several values for one entry are separate records, joined by “and”; a condition that tells them apart may be missing. Identical values can stand only once. Inconclusive results and toxic doses are left out.

Consider `c1cc(Oc2ccc3ccncc3c2)c2ccncc2c1`, for which the T/C is 95 % of control under setting [1], 100 % of control under setting [2] and 101 % of control under setting [3].
Take `O=C1C2C(C(=O)N1c1ccc([N+](=O)[O-])cc1)C1c3ccccc3C2C2CCCCN21` (configuration not stated): the T/C under setting [4] is 93 % of control; the T/C (endpoint: mean survival time, dose: 200.0 mg/kg/injection, schedule: Q01DX001 (ip), vehicle: Klucel (hydroxypropylcellulose) (HPC)) is 101 % of control; the T/C (endpoint: mean survival time, dose: 400.0 mg/kg/injection, schedule: Q01DX001 (ip), vehicle: Klucel (hydroxypropylcellulose) (HPC)) was 100 % of control.
Regarding `C=CCOC(=O)Nc1ccc(S(=O)(=O)N(CCC)CCC)cc1`, the T/C runs as follows: under setting [5], 103 % of control; under setting [6], 101 % of control; under setting [7], 89 % of control.
In the case of `COc1ccccc1-n1c(O)c(N=Nc2ccccc2)c(=O)n(-c2ccccc2OC)c1=S`, the T/C reads like this: under setting [8], 105 % of control; under setting [9], 102 % of control.
On to `CC12OC3(C)C4CC1C1(C)OC4(C)C3C(O)C21` (configuration not stated), for which the T/C reads like this: under setting [5], 97 % of control; under setting [10], 105 % of control; under setting [6], 97 % of control; under setting [11], 102 % of control; under setting [7], 100 % of control; under setting [12], 96 % of control.
With `O=C1CC(=O)N2C=CC=CC2=N1`, the T/C was 122 % of control under setting [13], 96 % of control under setting [14] and 92 % of control under setting [15].
`O=C(c1ccccc1)C1C(c2ccccc2)C2(CCCCC2=O)C(c2ccccc2)CC1(O)c1ccccc1` (configuration not stated): the T/C under setting [4] is 96 % of control.
Take `CN1C(=S)[N+](C)(C)N=C1[O-]`: the T/C runs as follows: under setting [16], 107 % of control; under setting [17], 108 % of control; under setting [10], 100 % of control; under setting [18], 113 % of control; under setting [11], 105 % of control; under setting [12], 101 % of control.
For `CCOC(=O)c1cnc(SCc2ccccc2)nc1Nc1ccccc1`, the T/C is 93 % of control under setting [8], 88 % of control under setting [9] and 88 % of control under setting [19].
Regarding `NCC1CC2C=CC1C2` (configuration not stated), the T/C is, setting by setting: under setting [5], 100 % of control; under setting [6], 93 % of control.
Regarding `CN(C)CCN(C)CCN(C)CCN(C)C`, the T/C was 95 % of control under setting [10], 97 % of control under setting [11] and 108 % of control under setting [12].
Consider `C=Cc1cc(OC)c2c(c1)c(=O)oc1c2cc(OC)c2c(O)ccc(C3OC(C)C(O)C(C)(O)C3O)c21` (configuration not stated), for which the T/C is 107 % of control (endpoint: median survival time, dose: 5.0 mg/kg/injection, schedule: Q01DX009 (ip), vehicle: DMSO); 116 % of control and 111 % of control (endpoint: median survival time, dose: 10.0 mg/kg/injection, schedule: Q01DX009 (ip), vehicle: DMSO); 118 % of control (endpoint: median survival time, dose: 10.0 mg/kg/injection, schedule: Q01DX009 (ip), vehicle: other); 116 % of control and 122 % of control (endpoint: median survival time, dose: 20.0 mg/kg/injection, schedule: Q01DX009 (ip), vehicle: DMSO); 155 % of control (endpoint: median survival time, dose: 80.0 mg/kg/injection, schedule: Q01DX009 (ip), vehicle: DMSO); 120 % of control (endpoint: median survival time, dose: 160.0 mg/kg/injection, schedule: Q01DX009 (ip), vehicle: DMSO). Under “endpoint: median survival time, dose: 160.0 mg/kg/injection, schedule: Q01DX009 (ip), vehicle: other”, the T/C was 113 % of control.
Regarding `C1=CC=CCC=C1`, the T/C runs as follows: (endpoint: mean survival time, dose: 12.5 mg/kg/injection, schedule: Q01DX009 (ip), vehicle: saline with Tween-80) 92 % of control; (endpoint: mean survival time, dose: 25.0 mg/kg/injection, schedule: Q01DX009 (ip), vehicle: saline with Tween-80) 92 % of control; under setting [20], 98 % of control.
In the case of `CCOC(=O)C1C(=O)CC(c2ccccc2)C(C#N)(c2ccccc2)C1(O)c1ccccc1` (configuration not stated), the T/C was 90 % of control under setting [21], 90 % of control under setting [22] and 90 % of control under setting [23].
Turning to `CS(=O)(=O)OCCCN(CCCOS(C)(=O)=O)c1ccc(C=Nc2ccc(-c3csc(COc4ccc(Cl)cc4)n3)cc2)cc1`, the T/C was 91 % of control under setting [8], 91 % of control under setting [9] and 95 % of control under setting [19].
On to `O=C(O)c1[nH]nc(-c2ccc([N+](=O)[O-])cc2)c1[N+](=O)[O-]`, for which the T/C is, setting by setting: (endpoint: mean survival time, dose: 4.7 mg/kg/injection, schedule: Q01DX005 (ip), vehicle: water) 86 % of control; (endpoint: mean survival time, dose: 9.4 mg/kg/injection, schedule: Q01DX005 (ip), vehicle: water) 90 % of control; (endpoint: mean survival time, dose: 18.8 mg/kg/injection, schedule: Q01DX005 (ip), vehicle: water) 90 % of control; (endpoint: mean survival time, dose: 37.5 mg/kg/injection, schedule: Q01DX005 (ip), vehicle: water) 104 % of control; (endpoint: mean survival time, dose: 50.0 mg/kg/injection, schedule: Q01DX005 (ip), vehicle: water) 97 % of control; (endpoint: mean survival time, dose: 75.0 mg/kg/injection, schedule: Q01DX005 (ip), vehicle: water) 93 % of control. Also, the T/C was 93 % of control (endpoint: mean survival time, dose: 100.0 mg/kg/injection, schedule: Q01DX005 (ip), vehicle: water); 89 % of control (endpoint: mean survival time, dose: 200.0 mg/kg/injection, schedule: Q01DX005 (ip), vehicle: water); 101 % of control (endpoint: mean survival time, dose: 400.0 mg/kg/injection, schedule: Q01DX005 (ip), vehicle: water).
As for `Cc1ccc(S(=O)(=O)OCC(O)C(O)C(O)C(O)CO[N+](=O)[O-])cc1` (configuration not stated), the T/C runs as follows: under setting [8], 101 % of control; under setting [9], 101 % of control; under setting [19], 101 % of control.
For the molecule `Nc1ncccc1[N+](=O)[O-]`, the T/C was 97 % of control under setting [8]; 105 % of control under setting [1]; 96 % of control under setting [9]; 102 % of control under setting [2]; 98 % of control under setting [19]; 105 % of control under setting [3].
On to `Cc1ccc(NC(=O)CCl)cc1Cl`, for which the T/C was 95 % of control under setting [20], 90 % of control under setting [24], 98 % of control under setting [1] and 89 % of control under setting [2].
As for `COc1cc(/C=N\NC(=O)CC#N)cc(OC)c1OC`, the T/C under setting [1] was 94 % of control and the T/C under setting [2] was 98 % of control.
With `CCOC(=O)C(N)CSC(=O)NC` (configuration not stated), the T/C reads like this: (endpoint: mean survival time, dose: 12.5 mg/kg/injection, schedule: Q01DX009 (ip), vehicle: saline) 95 % of control; (endpoint: mean survival time, dose: 25.0 mg/kg/injection, schedule: Q01DX009 (ip), vehicle: saline) 103 % of control and 107 % of control; under setting [16], 116 % of control and 97 % of control; under setting [17], 123 % of control and 105 % of control; under setting [18], 116 % of control and 111 % of control; (endpoint: mean survival time, dose: 800.0 mg/kg/injection, schedule: Q01DX009 (ip), vehicle: saline) 94 % of control.
For `Cc1ccc2c(c1)C(=O)/C(=C/c1ccccn1)CCO2`, the T/C is, setting by setting: under setting [21], 92 % of control; under setting [22], 88 % of control; under setting [23], 92 % of control.
Consider `COC(=O)c1c(F)c(F)c(Nc2c(F)c(F)c(C(=O)OC)c(F)c2F)c(F)c1F`, for which the T/C by setting is: under setting [1], 95 % of control; under setting [2], 95 % of control; under setting [3], 91 % of control.
Turning to `CN(CC#CCOc1ccc(Br)cc1)c1ccccc1`, the T/C reads like this: under setting [24], 103 % of control; (endpoint: mean survival time, dose: 200.0 mg/kg/injection, schedule: Q01DX009 (ip), vehicle: saline with Tween-80) 100 % of control; (endpoint: mean survival time, dose: 400.0 mg/kg/injection, schedule: Q01DX009 (ip), vehicle: saline with Tween-80) 97 % of control.
Regarding `Cc1ccc(/C=N\N=C\c2ccc(C)cc2)cc1`, the T/C runs as follows: under setting [1], 90 % of control; under setting [3], 95 % of control.
Turning to `CC(=O)Nc1ccc2cc3ccc(NC(C)=O)cc3nc2c1`, the T/C is 98 % of control under setting [13], 98 % of control under setting [14] and 98 % of control under setting [15].
Turning to `O=P(O)(O)OP(=O)(O)OCC1OC(n2cnc3c(=S)nc[nH]c32)C(O)C1O` (configuration not stated), the T/C reads like this: (endpoint: mean survival time, dose: 200.0 mg/kg/injection, schedule: Q01DX009 (ip), vehicle: saline sonified) 123 % of control; (endpoint: mean survival time, dose: 400.0 mg/kg/injection, schedule: Q01DX009 (ip), vehicle: saline sonified) 112 % of control.

For the origin of these results see PubChem BioAssay AID256 (DTP/NCI, 2004).
